Source: ChEMBL document CHEMBL1149208, “Synthesis of 1alpha,25-dihydroxyvitamin D3-26,23-lactams (DLAMs), a novel series of 1 alpha,25-dihydroxyvitamin D3 antagonist” (Bioorg Med Chem Lett, 2004)

Legend:
[1] = molecular target: T1, Vitamin D3 receptor (Gallus gallus, UniProt O42392); experiment: In vitro relative binding affinity for chick intestinal vitamin D3 receptor compared to [3H]1
T1 sequence (O42392 whole entry): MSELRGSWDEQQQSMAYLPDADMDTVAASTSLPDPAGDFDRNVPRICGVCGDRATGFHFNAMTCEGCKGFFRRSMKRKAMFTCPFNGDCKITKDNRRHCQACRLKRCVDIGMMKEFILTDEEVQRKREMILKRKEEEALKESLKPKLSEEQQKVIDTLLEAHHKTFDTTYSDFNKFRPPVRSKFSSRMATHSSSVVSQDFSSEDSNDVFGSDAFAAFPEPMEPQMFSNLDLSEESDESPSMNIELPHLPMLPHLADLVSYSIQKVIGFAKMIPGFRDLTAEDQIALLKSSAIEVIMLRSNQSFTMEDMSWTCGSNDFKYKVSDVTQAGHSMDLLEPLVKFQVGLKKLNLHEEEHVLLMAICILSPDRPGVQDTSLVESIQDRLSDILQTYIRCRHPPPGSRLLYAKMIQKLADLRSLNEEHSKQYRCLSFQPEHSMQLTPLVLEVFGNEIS

[2] = system: HL-60; experiment: Inhibitory activity on HL-60 cell differentiation induced by 10e-8 M of compound 1 (1,25-D3); set-up: scale not given: the % may be the effect or the level left

SMILES | IC50 [1] [nM] | Activity [2] [%]
C=C1/C(=C/C=C2/CCC[C@@]3(C)C2CCC3[C@H](C)C[C@H]2C[C@](C)(O)C(=O)N2C)C[C@@H](O)C[C@@H]1O (stereo partly drawn) | 10.2 | 12
C=C1/C(=C/C=C2/CCC[C@]3(C)[C@@H]([C@H](C)C[C@@H]4C[C@](C)(O)C(=O)N4C)CC[C@@H]23)C[C@@H](O)C[C@@H]1O (stereo in doubt; form 2) | > 100 | 
C=C1/C(=C/C=C2/CCC[C@]3(C)[C@@H]([C@H](C)C[C@@H]4C[C@](C)(O)C(=O)N4C)CC[C@@H]23)C[C@@H](O)C[C@@H]1O (stereo in doubt; form 1) | > 100 | 
C=C1/C(=C/C=C2/CCC[C@@]3(C)C2CCC3[C@H](C)C[C@@H]2C[C@@](C)(O)C(=O)N2Cc2ccccc2)C[C@@H](O)C[C@@H]1O (stereo partly drawn) | 30 | 
C=C1/C(=C/C=C2/CCC[C@@]3(C)C2CCC3[C@H](C)C[C@H]2C[C@](C)(O)C(=O)N2Cc2ccccc2)C[C@@H](O)C[C@@H]1O (stereo partly drawn) | 1.9 | 47
C=C1/C(=C/C=C2/CCC[C@]3(C)[C@@H]([C@H](C)C[C@@H]4C[C@@](C)(O)C(=O)N4C)CC[C@@H]23)C[C@@H](O)C[C@@H]1O | 50 | 
